# Assay results reported in patent US20110070232A1, “Combination Therapy with an Antitumor Alkaloid” (Pharma Mar, S.A., priority 2008, published 2011).
# Like-named read-outs stand apart in the source and are kept apart here.
# Columns and labels:
# [1] = tested on: HGC-27 human gastric carcinoma cell line; assay: IC50 determination, MTS assay, 72 h (Example 1); format: cell-based; conditions: 72 hours of drug exposure
# Description: (§1) The human gastric carcinoma cell lines selected for this assay were the following: Hs746T, HGC-27, and AGS cell lines. Hs746T and AGS cell lines were grown in Dulbecco's modified Eagle's medium (DMEM) supplemented with 10% Fetal Bovine Serum (FBS), 1.5 g/L sodium bicarbonate, 4.5 g/L glucose and 4 mM L-glutamine. HGC-27 cell line was grown in Iscove's modified Dulbecco's medium (IMDM) supplemented with 20% FBS and 2 mM L-glutamine.
# (§2) The day before plating, the cells were fed with fresh, complete growth media. On the harvest (plating) day, cells were counted by Trypan Blue exclusion staining method.
# (§3) Cells were harvested and seeded in 96 well microtiter plates at 10,000 cells density in 150 μL of media and incubated for 24 hours to allow the cells to attach before drug addition. To collect reference data, the MTS assay was done on untreated cells at time 0 (after incubation of cells for 24 hours).
# (§4) The cytotoxic effect was measured by the MTS Assay (Tetrazolium), which is a colorimetric method for determining the number of viable cells. After the incubation period (24 hours for the Day 0 plate and 72 hours for the Test and Control plates), 25 μL of MTS+PMS solution was added to each microtiter well and incubated for 4 hours at 37° C. Plates were then removed from incubator and placed on plate shaker for 5 minutes (covered with aluminum foil for protection from light). Optical densities were read at 490 nm on spectrophotometer plate reader.
# (§5) IC50 values were calculated from an average of two to four assays for each of the test agents.
# [2] = tested on: AGS human gastric carcinoma cell line; assay: IC50 determination, MTS assay, 72 h (Example 1); format: cell-based; conditions: 72 hours of drug exposure
# Description: as §1, §2, §3, §4, §5
# [3] = tested on: Hs746T human gastric carcinoma cell line; assay: IC50 determination, MTS assay, 72 h (Example 1); format: cell-based; conditions: 72 hours of drug exposure
# Description: as §1, §2, §3, §4, §5
# SK-OV-3 tumors = format: in vivo, mice
# Source text: Female athymic nude mice (Harlan Sprague Dawley, Madison, Wis.) were utilized for all experiments. Animals were housed in ventilated rack caging with food and water ad libitum. The mice were acclimated for at least 5 days prior to tumor implantation with tumor fragments.
# The tumor model used in these studies was SK-OV-3 cell line, which was obtained from the ATCC (Manassas, Va.).
# SK-OV-3 fragments were removed from donor animals and tissue was debrided of membrane and any hemorrhagic and necrotic areas and 3-4 mm^3 fragments, from in vivo passage 2, were implanted SC on the right flank of each animal, using a 13G trochar. Bacterial culture was taken on cells used to implant the study.
# Treatments were initiated on DPI 14.
# Tumor size measurements were recorded twice weekly from the treatment initiation until the termination of the study.
# (§6) Mean, standard deviation and standard error of the mean were determined for tumor volume for all animal groups at all assessments. Student's t test was performed on tumor volumes at each measurement day, including at the end of the study, to determine whether there were any statistically significant differences between combination treatment groups and single monotherapy treatment groups.
# NCI-H460 tumors = format: in vivo, mice
# Description: Female athymic nude mice (Harlan Sprague Dawley, Madison, Wis.) were utilized for all experiments. Animals were housed in ventilated rack caging with food and water ad libitum. The mice were acclimated for at least 5 days prior to tumor implantation.
# The tumor model used in this study was NCI-H460 cell line which is a human NSCLC cell line obtained from the ATCC (Manassas, Va.). […] Cells from in vitro passage 7 were implanted SC into study mice using a 1 ml syringe with a 13G trocar: 5×10^6 cells/mouse in 0.2 ml 50% Matrigel/50% RPMI medium of NCI-H460 without serum or antibiotics. Bacterial culture was taken on cells used to implant the study.
# Treatments were initiated on DPI 9.
# Tumor size measurements were recorded 2-3 times/week from the treatment initiation until the termination of the study.
# as §6
# [4] = Bevacizumab […] IP, alone or with PM00104 0.90 mg/kg/day IV
# [5] = PM00104 0.90 mg/kg/day IV and/or Bevacizumab 5 mg/kg/day IP
# [6] = Bevacizumab […] IP, alone or with PM00104 0.9 mg/kg/day IV
# [7] = PM00104 0.9 mg/kg/day IV and/or Bevacizumab 5 mg/kg/day IP
molecule,measurement,setting,value
"CCc1c2c(nc3ccc(O)cc13)-c1cc3c(c(=O)n1C2)COC(=O)[C@]3(O)CC [SN38, 7-ethyl-10-hydroxycamptothecin]",IC50,[1],0.246 µg/mL
same,IC50,[2],0.00549 µg/mL
same,IC50,[3],0.0582 µg/mL
bevacizumab,% T/C on day 14,SK-OV-3 tumors; [4],100.5%
same,% T/C on day 17,SK-OV-3 tumors; [4],85.0%
same,% T/C on day 21,SK-OV-3 tumors; [4],61.0%
same,% T/C on day 24,SK-OV-3 tumors; [4],48.4%
same,% T/C on day 29,SK-OV-3 tumors; [4],32.1%
same,% T/C on day 32,SK-OV-3 tumors; [4],29.6%
same,% T/C on day 36,SK-OV-3 tumors; [4],40.3%
same,% T/C on day 43,SK-OV-3 tumors; [4],48.7%
same,% T/C on day 50,SK-OV-3 tumors; [4],47.5%
same,% T/C on day 57,SK-OV-3 tumors; [4],70.0%
same,% T/C on day 14,SK-OV-3 tumors; [5],100.2%
same,% T/C on day 17,SK-OV-3 tumors; [5],76.6%
same,% T/C on day 21,SK-OV-3 tumors; [5],64.0%
same,% T/C on day 24,SK-OV-3 tumors; [5],42.6%
same,% T/C on day 29,SK-OV-3 tumors; [5],28.0%
same,% T/C on day 32,SK-OV-3 tumors; [5],25.8%
same,% T/C on day 36,SK-OV-3 tumors; [5],30.7%
same,% T/C on day 43,SK-OV-3 tumors; [5],43.8%
same,% T/C on day 50,SK-OV-3 tumors; [5],42.5%
same,% T/C on day 57,SK-OV-3 tumors; [5],46.1%
same,% T/C on day 9,NCI-H460 tumors; [6],99.4%
same,% T/C on day 13,NCI-H460 tumors; [6],81.7%
same,% T/C on day 16,NCI-H460 tumors; [6],74.3%
same,% T/C on day 21,NCI-H460 tumors; [6],59.7%
same,% T/C on day 24,NCI-H460 tumors; [6],52.0%
same,% T/C on day 27,NCI-H460 tumors; [6],26.9%
same,% T/C on day 30,NCI-H460 tumors; [6],43.3%
same,% T/C on day 38,NCI-H460 tumors; [6],96.8%
same,% T/C on day 41,NCI-H460 tumors; [6],104.7%
same,% T/C on day 9,NCI-H460 tumors; [7],102.1%
same,% T/C on day 13,NCI-H460 tumors; [7],91.3%
same,% T/C on day 16,NCI-H460 tumors; [7],87.6%
same,% T/C on day 21,NCI-H460 tumors; [7],74.2%
same,% T/C on day 24,NCI-H460 tumors; [7],68.3%
same,% T/C on day 27,NCI-H460 tumors; [7],38.7%
same,% T/C on day 30,NCI-H460 tumors; [7],43.7%
